The values that follow come from patent US20240351986A1, “UREA COMPOUND CONTAINING 2-HETEROAROMATIC RING SUBSTITUTION, PREPARATION METHOD THEREFOR AND USE THEREOF” (SHANGHAI INSTITUTE OF MATERIA MEDICA, CHINESE ACADEMY OF …, priority 2021, published 2024).

Like-named read-outs stand apart in the source and are kept apart here.

The test system of one data set is U2932. In words: Tumor cell proliferation inhibition in vitro. Format: cell-based. The note with it: Homo sapiens.
The subject of a further data set is WSU-DLCL2 cells. In words: Tumor cell proliferation inhibition in vitro (CCK-8). To be noted: Homo sapiens, WSUDLCL2, 72 hours. Format: cell-based. How it is done: Experimental method: WSU-DLCL2 cells in good condition were seeded in a 96-well plate at 20,000/well. The test compound was gradient diluted with PBS and then added to the wells. After incubating with the cells for 72 hours, 10 μl of CCK-8 reagent was added to each well. After further incubation, the absorbance was measured at 460 nm and the 4-parameter curve fitting of Softmax Pro software was used to calculate the proliferation inhibition IC50 of the test compound.

In another data set the test system is Will2. Put plainly: Tumor cell proliferation inhibition in vitro. Format: cell-based.
Data set [1] is described as follows: PK parameters in mice after iv and po administration (LC-MS/MS of plasma). Format: in vivo. To be noted: for AUC(0-t) / half-life / AUC(0-inf) / MRT inf / Cmax / Tmax: mouse, plasma; for AUC(0-inf): read-out: AUCINF_obs; for MRT inf: read-out: MRTINF_obs; for F: oral bioavailability. How it is done:
The relevant pharmacokinetic parameters were calculated to examine the oral bioavailability and pharmacokinetic properties of the compound in mice.

The subject of a further data set is Pfeiffer. In words: Tumor cell proliferation inhibition in vitro. Format: cell-based. The note with it: for IC50: Homo sapiens, Pfeiffer, proliferation.
For a further data set, the system named is 422. In words: Tumor cell proliferation inhibition in vitro. In kind it is cell-based. The note with it: for IC50: proliferation.
In a further data set the target is CDK7/cyclin H (Homo sapiens, UniProt P50613). Put plainly: CDK7 enzyme activity inhibition. Format: biochemical. To be noted: for inhibition at 0.01 µM: compound 10 nM, read-out: CDK7/Cyc H inhibition rate % 10 nM; for inhibition at 0.1 µM: compound 100 nM, read-out: CDK7/Cyc H inhibition rate % 100 nM. The procedure:
(§1) CDK1,4,6,7 enzyme (CDK1/cyclin B, CDK4/cyclin D1, CDK6/cyclin D1, CDK7/cyclin H) activity was measured using a 5 μL enzyme system (50 mM HEPES, 10 mM MgCl2, 1 mM EGTA, 2 mM DTT and 0.0100 Tween 20, appropriate enzyme) either. A mixture of 2.5 μL of compound, 2.5 µL of substrate and ATP (final concentration of substrate 50 nM, final concentration of ATP 200 μM) was incubated at room temperature in the dark for 60 minutes. Then 5 μL EDTA stop solution diluted in 1× detection buffer (final concentration 6 mM) was added to each well, then an antibody diluted in 1× detection buffer (final concentration 2 nM) was added to incubate for 1 hour at room temperature in the dark, and then the corresponding enzyme activity inhibition rate or IC50 was calculated after measurement.

The target in the next data set is CDK4/cyclin D1 (Homo sapiens, UniProt P11802). In words: CDK4 enzyme activity inhibition. Format: biochemical. To be noted: for inhibition at 0.01 µM: compound 10 nM, read-out: CDK4/Cyc D1 inhibition rate % 10 nM; for inhibition at 0.1 µM: compound 100 nM, read-out: CDK4/Cyc D1 inhibition rate % 100 nM. How it is done: as §1
CDK4/cyclin D1, sequence (P11802 whole entry, species assumed): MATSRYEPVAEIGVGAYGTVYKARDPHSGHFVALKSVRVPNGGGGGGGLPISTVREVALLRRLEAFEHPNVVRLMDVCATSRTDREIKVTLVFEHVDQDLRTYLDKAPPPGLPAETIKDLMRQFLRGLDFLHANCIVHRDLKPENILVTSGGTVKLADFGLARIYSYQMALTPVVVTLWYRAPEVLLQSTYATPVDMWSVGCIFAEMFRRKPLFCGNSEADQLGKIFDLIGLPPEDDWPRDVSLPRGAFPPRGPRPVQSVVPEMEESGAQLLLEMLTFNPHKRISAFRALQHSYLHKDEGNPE
CDK4/cyclin D1, sequence (P24385 whole entry partner, species assumed): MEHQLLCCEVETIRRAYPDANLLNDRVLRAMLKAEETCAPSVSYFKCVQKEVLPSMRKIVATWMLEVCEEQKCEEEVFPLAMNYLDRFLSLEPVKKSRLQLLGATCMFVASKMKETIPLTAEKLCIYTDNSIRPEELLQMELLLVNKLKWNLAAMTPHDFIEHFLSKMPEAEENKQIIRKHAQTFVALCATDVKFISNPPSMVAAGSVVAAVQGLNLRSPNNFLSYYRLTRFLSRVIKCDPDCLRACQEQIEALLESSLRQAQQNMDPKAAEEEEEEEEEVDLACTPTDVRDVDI
The target in another data set is CDK1/cyclin B (Homo sapiens, UniProt P06493). In words: CDK1 enzyme activity inhibition. In kind it is biochemical. The note with it: for inhibition at 0.01 µM: compound 10 nM, read-out: CDK1/Cyc B inhibition rate % 10 nM; for inhibition at 0.1 µM: compound 100 nM, read-out: CDK1/Cyc B inhibition rate % 100 nM. How it is done: as §1
CDK1/cyclin B, sequence (P06493 whole entry, species assumed): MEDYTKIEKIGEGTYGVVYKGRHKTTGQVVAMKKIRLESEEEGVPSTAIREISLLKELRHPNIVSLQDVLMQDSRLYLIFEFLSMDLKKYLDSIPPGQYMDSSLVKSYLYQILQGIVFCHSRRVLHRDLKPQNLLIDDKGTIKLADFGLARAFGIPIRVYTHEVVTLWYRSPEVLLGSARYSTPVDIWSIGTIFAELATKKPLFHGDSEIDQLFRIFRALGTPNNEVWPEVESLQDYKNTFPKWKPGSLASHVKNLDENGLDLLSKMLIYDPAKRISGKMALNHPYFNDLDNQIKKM
CDK1/cyclin B, sequence (P14635 whole entry partner, species assumed): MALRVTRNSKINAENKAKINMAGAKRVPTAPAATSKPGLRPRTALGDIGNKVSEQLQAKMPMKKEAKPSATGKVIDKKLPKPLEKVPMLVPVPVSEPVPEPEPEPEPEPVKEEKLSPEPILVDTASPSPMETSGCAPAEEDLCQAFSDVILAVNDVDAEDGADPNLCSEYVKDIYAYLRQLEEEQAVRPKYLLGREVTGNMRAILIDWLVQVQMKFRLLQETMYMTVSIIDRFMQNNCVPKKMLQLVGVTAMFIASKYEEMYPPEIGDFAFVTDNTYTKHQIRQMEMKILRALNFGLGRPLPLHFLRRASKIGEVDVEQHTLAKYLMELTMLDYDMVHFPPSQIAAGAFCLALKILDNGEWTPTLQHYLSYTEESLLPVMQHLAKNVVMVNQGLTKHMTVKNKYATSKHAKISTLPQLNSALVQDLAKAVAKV
Data set [2] deals with T1, Recombinant human CDK9/cyclin T1 (Homo sapiens, UniProt P50750).
T1 construct: purchased Carna bioscience 04-110
T1 sequence (P50750 whole entry): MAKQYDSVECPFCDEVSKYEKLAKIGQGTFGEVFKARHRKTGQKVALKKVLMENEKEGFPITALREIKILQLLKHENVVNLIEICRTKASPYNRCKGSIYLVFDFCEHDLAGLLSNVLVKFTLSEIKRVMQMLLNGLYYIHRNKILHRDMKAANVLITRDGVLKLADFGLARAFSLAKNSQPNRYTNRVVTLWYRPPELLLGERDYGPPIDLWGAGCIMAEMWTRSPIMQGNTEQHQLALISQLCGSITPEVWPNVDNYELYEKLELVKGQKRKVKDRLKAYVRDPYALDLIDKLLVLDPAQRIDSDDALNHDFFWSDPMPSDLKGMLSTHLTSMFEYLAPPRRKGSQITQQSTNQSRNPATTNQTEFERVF
T1 sequence (O60563 whole entry partner): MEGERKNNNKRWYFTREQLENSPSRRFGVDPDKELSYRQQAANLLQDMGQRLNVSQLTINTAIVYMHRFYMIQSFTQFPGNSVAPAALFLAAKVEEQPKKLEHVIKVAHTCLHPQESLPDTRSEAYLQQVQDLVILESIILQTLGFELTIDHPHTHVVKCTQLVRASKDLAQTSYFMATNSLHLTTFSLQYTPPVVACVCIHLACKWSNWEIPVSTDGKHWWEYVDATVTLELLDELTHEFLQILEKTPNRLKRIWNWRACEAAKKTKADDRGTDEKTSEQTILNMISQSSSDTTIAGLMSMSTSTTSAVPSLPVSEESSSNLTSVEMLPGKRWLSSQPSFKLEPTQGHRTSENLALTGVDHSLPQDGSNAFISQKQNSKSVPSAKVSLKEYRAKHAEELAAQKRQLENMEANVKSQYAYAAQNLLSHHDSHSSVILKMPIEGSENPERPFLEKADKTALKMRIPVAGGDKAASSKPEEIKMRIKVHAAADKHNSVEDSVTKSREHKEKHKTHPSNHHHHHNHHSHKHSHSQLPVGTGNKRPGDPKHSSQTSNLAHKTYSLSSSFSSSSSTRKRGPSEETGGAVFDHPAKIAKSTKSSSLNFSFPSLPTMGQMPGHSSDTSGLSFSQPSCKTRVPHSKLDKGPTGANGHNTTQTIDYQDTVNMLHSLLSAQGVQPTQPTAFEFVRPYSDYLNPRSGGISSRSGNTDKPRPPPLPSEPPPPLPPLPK
In words: CDK9 enzyme inhibitory activity (ADP-Glo kinase assay). In kind it is biochemical. To be noted: for inhibition at 0.01 µM / inhibition at 0.1 µM: CDK9 enzyme activity, average of two independent repeats; for inhibition at 0.01 µM: compound 10 nM, read-out: Inhibition rate at different concentrations (%) 10 nM; for inhibition at 0.1 µM: compound 100 nM, read-out: Inhibition rate at different concentrations (%) 100 nM; for IC50: Table 2, read-out: CDK9/CycT1 IC50.

Another data set addresses CDK6/cyclin D1 (Homo sapiens, UniProt Q00534). Put plainly: CDK6 enzyme activity inhibition. Format: biochemical. The note with it: for inhibition at 0.01 µM: compound 10 nM, read-out: CDK6/Cyc D1 inhibition rate % 10 nM; for inhibition at 0.1 µM: compound 100 nM, read-out: CDK6/Cyc D1 inhibition rate % 100 nM. How it is done:
as §1

The test system of the next data set is Mcl-1. Put plainly: Western Blot, CDK9 signaling pathway in WSU-DLCL2 cells: Mcl-1 expression. In kind it is cell-based. The note with it: 24 hours. How it is done:
(§2) Western Blot was used to detect the effect of compounds on the activation of CDK9 signaling pathway in WSU-DLCL2 cells.
(§3) Experimental method: An appropriate amount of WSU-DLCL2 cells were seeded in a 6-well plate. After 24 hours of exposure to the test compound, the cells were collected by centrifugation. A corresponding amount of 1× loading buffer (50 mM Tris-HCl (pH6.8), 2% SDS, 0.1% bromophenol blue, 10% glycerol) was added, the sample was boiled at 100° C. after lysis. The same volume of sample was taken. After SDS-PAGE electrophoresis, the protein on the gel was transferred to a nitrocellulose membrane. The corresponding band was cut according to the size of the protein and blocked TBST containing 5% skimmed milk powder (20 mM Tris-HCl, 150 mM NaCl, 0.1% Tween20, adjust pH to 7.4) for 1 hour, and primary antibody was incubated overnight at 4° C. TBST was used to elute excess primary antibody for 10 minutes each time for three times, the secondary antibody was incubated at room temperature for 1 hour, and then TBST was used to elute excess secondary antibody for 10 minutes each time for three times. Finally, the strips were colored and photographed using a Bio-Rad colorimeter.

A short description of data set [3]: Identification of metabolites in mouse plasma. In kind it is in vivo.
Data set [4] deals with phosphorylation of Pol II S2 position. Put plainly: Western Blot, CDK9 signaling pathway in WSU-DLCL2 cells: Pol II S2 phosphorylation. To be noted: 24 hours. In kind it is cell-based. The procedure: as §2, §3
Where [5] appears, read: original form and metabolites of compound 47 in mouse plasma, iv.

CDK7/cyclin H, sequence (P50613 whole entry, species assumed): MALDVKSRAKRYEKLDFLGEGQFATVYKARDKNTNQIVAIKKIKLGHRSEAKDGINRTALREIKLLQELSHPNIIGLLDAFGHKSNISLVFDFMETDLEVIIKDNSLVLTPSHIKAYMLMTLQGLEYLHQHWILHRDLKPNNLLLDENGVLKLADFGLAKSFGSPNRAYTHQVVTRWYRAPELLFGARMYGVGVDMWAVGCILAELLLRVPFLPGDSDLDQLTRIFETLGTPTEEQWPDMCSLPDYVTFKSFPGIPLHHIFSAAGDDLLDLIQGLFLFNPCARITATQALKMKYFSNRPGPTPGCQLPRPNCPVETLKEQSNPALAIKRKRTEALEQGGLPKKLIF
CDK7/cyclin H, sequence (P51946 whole entry partner, species assumed): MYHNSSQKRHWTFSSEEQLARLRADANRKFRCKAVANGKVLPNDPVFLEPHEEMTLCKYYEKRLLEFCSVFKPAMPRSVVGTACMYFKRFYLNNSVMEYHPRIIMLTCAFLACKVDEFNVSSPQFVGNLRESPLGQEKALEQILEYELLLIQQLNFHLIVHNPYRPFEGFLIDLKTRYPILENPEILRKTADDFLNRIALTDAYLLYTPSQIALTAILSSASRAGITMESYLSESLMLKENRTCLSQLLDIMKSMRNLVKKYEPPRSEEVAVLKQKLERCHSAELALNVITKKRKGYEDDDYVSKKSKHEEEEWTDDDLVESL
CDK6/cyclin D1, sequence (Q00534 whole entry, species assumed): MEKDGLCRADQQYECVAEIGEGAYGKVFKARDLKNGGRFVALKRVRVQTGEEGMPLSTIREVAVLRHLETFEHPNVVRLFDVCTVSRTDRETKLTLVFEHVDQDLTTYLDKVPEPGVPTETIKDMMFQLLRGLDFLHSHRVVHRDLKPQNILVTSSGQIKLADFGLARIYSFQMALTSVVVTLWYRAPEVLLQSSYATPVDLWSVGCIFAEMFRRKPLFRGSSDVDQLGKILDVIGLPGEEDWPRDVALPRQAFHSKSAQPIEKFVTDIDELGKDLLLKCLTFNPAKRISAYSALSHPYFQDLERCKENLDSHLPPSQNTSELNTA
CDK6/cyclin D1, sequence (P24385 whole entry partner, species assumed): as the sequence (P24385 whole entry partner, species assumed) above

For `CC(=O)N[C@@H]1CCC[C@H](C(=O)Nc2cc(-c3cnn4c3CC(C)(C)C4)c(Cl)cn2)C1` [AZD4573, reference compound], the IC50 in the data set with U2932 was 2.32 nM; in the data set with WSU-DLCL2 cells, < 3 nM; in the data set with Will2, 5.75 nM; with Pfeiffer, 2.43 nM; in the data set with 422 it was 1.81 nM. The compound further registered a CL_obs in data set [1] (i.v.) of 119 mL/min/kg. In data set [1] (i.v.), this compound showed a Vss_obs of 0.82 L/kg. In addition, the AUC(0-t) in [1] (iv, 3 mg/kg) came out at 416 ng·h/mL; in data set [1] (po), 73.2 ng·h/mL. For the same compound, the half-life in [1] (iv, 3 mg/kg) was 0.11 h; in [1] (po, 10 mg/kg), 0.27 h. Further, the AUC(0-inf) is 419 ng·h/mL in data set [1] (iv, 3 mg/kg, i.v.) and 73.6 ng·h/mL in data set [1] (po). The MRT inf came out at 0.11 h in [1] (iv, 3 mg/kg, i.v.) and 0.42 h in data set [1] (po). This compound returned a peak concentration (Cmax) in data set [1] (po) of 219 ng/mL. Further, in data set [1] (po), the Tmax was found to be 0.25 h. In data set [1], this compound returned an F of 5.28%.

For `COCCN[C@H]1CC[C@H](NC(=O)Nc2cc(-c3cnn4c3CC(C)(C)C4)c(Cl)cn2)CC1` [Example 46, 1-(5-chloro-4-(5,5-dimethyl-5,6-dihydro-4H-pyrrolo[1,2-b]pyrazol-3-yl)pyridin-2-yl)-3-((1r,4r)-4-((2-methoxy)amino)cyclohexyl)urea], on CDK7/cyclin H, the inhibition at 0.01 µM turned out to be 24% and the inhibition at 0.1 µM was 59%. In addition, on CDK4/cyclin D1, the inhibition at 0.01 µM was 11.1% and the inhibition at 0.1 µM turned out to be 20.9%. In addition, in data set [1], the “plasma clearance rates compared with AZD4573” value is “lower” and the F is given as 24.8%. In [1] (i.v.), the CL_obs is listed as 68.6 mL/min/kg and the Vss_obs came to 3.469 L/kg. Moreover, in data set [1] (iv, 3 mg/kg), the AUC(0-t) amounted to 728 ng·h/mL and the half-life was 2.09 h. For the same compound, in [1] (iv, 3 mg/kg, i.v.), the AUC(0-inf) was 729 ng·h/mL and the MRT inf is 0.84 h. In data set [1] (po), the AUC(0-t) was found to be 601 ng·h/mL, the Cmax stood at 382 ng/mL, the time to peak (Tmax) worked out at 1 h and the AUC(0-inf) was 602 ng·h/mL. Also, the MRT inf in [1] (po) was 1.7 h. The same compound had a half-life in data set [1] (po, 10 mg/kg) of 2.38 h. Further, on CDK1/cyclin B, the inhibition at 0.01 µM was -5.1% and the inhibition at 0.1 µM was found to be 11.6%. In [2], the inhibition at 0.01 µM was 55%, the inhibition at 0.1 µM is 94% and the IC50 was 12 nM. On CDK6/cyclin D1, the inhibition at 0.01 µM was determined as 6.2% and the inhibition at 0.1 µM stood at 21.6%.

As for `CC(=O)N[C@H]1CC[C@H](NC(=O)Nc2cc(-c3cnn4c3CC(C)(C)C4)c(Cl)cn2)CC1` [Example 47, N-((1r,4r)-4-(3-(5-chloro-4-(5,5-dimethyl-5,6-dihydro-4H-pyrrolo[1,2-b]pyrazol-3-yl)pyridin-2-yl)ureido)cyclohexyl)acetamide], the IC50 in the data set on U2932 is 0.932 nM; in the data set on WSU-DLCL2 cells it was < 4.5 nM; in the data set with Will2, 2.16 nM; in data set [2] it was 5.1 nM; in the data set on Pfeiffer, 0.052 nM; in the data set with 422, 0.089 nM. The Mcl-1 expression entry in the data set on Mcl-1 (50 nM) is given as “significant decrease”; with Mcl-1 (100 nM), “almost completely blocked”. Besides, the inhibition at 0.01 µM came out at 15% at CDK7/cyclin H; 13.6% at CDK4/cyclin D1; 5% at CDK1/cyclin B; 71% in [2]; 4.6% on CDK6/cyclin D1. Moreover, the inhibition at 0.1 µM was 50% on CDK7/cyclin H; 41.1% on CDK4/cyclin D1; 33.4% on CDK1/cyclin B; 84% in data set [2]; 26.7% on CDK6/cyclin D1. In addition, the “plasma clearance rates compared with AZD4573” value in data set [1] is “lower”. Besides, in [1] (i.v.), the CL_obs stood at 102 mL/min/kg. In addition, the Vss_obs in data set [1] (i.v.) was found to be 14.318 L/kg. In addition, the area under the curve AUC(0-t) in data set [1] (iv, 3 mg/kg) worked out at 480 ng·h/mL; in data set [1] (po), 98.8 ng·h/mL. For the same compound, the half-life was 3.84 h in data set [1] (iv, 3 mg/kg) and 1.5 h in data set [1] (po, 10 mg/kg). The AUC(0-inf) amounted to 491 ng·h/mL in [1] (iv, 3 mg/kg, i.v.) and 100 ng·h/mL in [1] (po). In addition, the MRT inf in [1] (iv, 3 mg/kg, i.v.) was 2.34 h; in data set [1] (po), 1.57 h. This compound returned a Cmax in [1] (po) of 58.2 ng/mL. In addition, in [1] (po), the time to peak (Tmax) worked out at 0.5 h. The same compound displayed a F in [1] of 6.18%. Besides, the “plasma stability compared with positive compound AZD4573” value in data set [3] (mouse plasma, from metabolite identification) is reported as “higher plasma stability”. Further, the “growth inhibition potency relative to positive control compound AZD4573” value in the data set with Pfeiffer (Pfeiffer cells, IC50 ratio) was 46.67 times; in the data set with 422 (422 cells, IC50 ratio), 20.33 times. The “phosphorylation of Pol II S2 position” value in data set [4] (50 nM, vs control group) is given as “significantly down-regulated”; in [4] (100 nM) it was “basically completely inhibited”.

Regarding `CC(=O)N[C@H]1CC[C@@H](NC(=O)Nc2cc(-c3cnn4c3CC(C)(C)C4)c(Cl)cn2)CC1` [Example 67, N-((1s,4s)-4-(3-(5-chloro-4-(5,5-dimethyl-5,6-dihydro-4H-pyrrolo[1,2-b]pyrazol-3-yl)pyridin-2-yl)ureido)cyclohexyl)acetamide], the inhibition at 0.01 µM at CDK7/cyclin H was -4%; at CDK4/cyclin D1, 9.5%; at CDK1/cyclin B, 4.7%; in data set [2], 68%; on CDK6/cyclin D1, 4%. Also, the inhibition at 0.1 µM was 44% at CDK7/cyclin H; 18% on CDK4/cyclin D1; 47.4% at CDK1/cyclin B; 85% in data set [2]; 19.1% at CDK6/cyclin D1. In data set [2], the IC50 was found to be 5.3 nM.

On to `CC(=O)N[C@H]1CC[C@H](NC(=O)Nc2cc(-c3cnn4c3CC(C)(C)C4)c(Cl)cn2)CC1` [Example M0], for which, in data set [3] (setting [5]), the “Area (254 nm), value in parentheses, iv” value is listed as “(532)” and the “MS Area iv” value turned out to be 62967. For the same compound, the “MS Area po” value in data set [3] (original form and metabolites of compound 47 in mouse plasma, po) was found to be 811.
